Test results taken from patent publication US20240148821A1, “PHARMACEUTICAL USE OF CYCLIC PEPTIDE COMPOUND” (CHUGAI SEIYAKU KABUSHIKI KAISHA, priority 2021, published 2024).
Numbered stars: 1 amine (or outer) side, 2 acyl side, 3 side chain; on linkers, the order of the positions; unused ones are H or OH. Bridge positions count the residues as written; N and C are the ends. Square brackets hold non-standard residues; d marks the D form. Peptide text beside a SMILES is read from it. * marks the point of attachment. hPhe(3-Cl-4-CF3) = N[C@@H](CCc1ccc(C(F)(F)F)c(Cl)c1)C(=O)O; X8 = CC(C)Oc1cc(CC[C@H](N[*:1])C(=O)[*:2])cc(Cl)c1Cl; hPhe(4-CF3) = N[C@@H](CCc1ccc(C(F)(F)F)cc1)C(=O)O; NMePhe(4-Cl) = CN[C@@H](Cc1ccc(Cl)cc1)C(=O)O; NMePhe(3-F) = CN[C@@H](Cc1cccc(F)c1)C(=O)O; NMedβ3hAla = C[C@H](CC(=O)[*:2])N(C)[*:1]; NMeGly(cPent) = CN[C@H](C(=O)O)C1CCCC1; Phe(3-I) = N[C@@H](Cc1cccc(I)c1)C(=O)O; NMe3Pal = CN[C@@H](Cc1cccnc1)C(=O)O; NMeGly(cBu) = CN[C@H](C(=O)O)C1CCC1; NMeY = CN[C@@H](Cc1ccc(O)cc1)C(=O)O; NMeCha = CN[C@@H](CC1CCCCC1)C(=O)O; NMeChg = CN[C@H](C(=O)O)C1CCCCC1; NMeE = CN[C@@H](CCC(=O)O)C(=O)O; NMeD = CN[C@@H](CC(=O)O)C(=O)O; NMeL = CN[C@@H](CC(C)C)C(=O)O; NMeNle = CCCC[C@H](NC)C(=O)O; NMeNva = CCC[C@H](NC)C(=O)O; NMeV = CN[C@H](C(=O)O)C(C)C; d(β3hA) = C[C@@H](N)CC(=O)O; Pip = O=C(O)[C@@H]1CCCCN1; Morpholide = C1CN(*)CCO1; NMeA = CN[C@@H](C)C(=O)O; NMeAib = CNC(C)(C)C(=O)O; Nle = CCCC[C@H](N)C(=O)O; Piperidide = C1CCN(*)CC1; dNMeA = CN[C@H](C)C(=O)O; Ac5c = NC1(C(=O)O)CCCC1; Aze = O=C(O)[C@@H]1CCN1; Sar = CNCC(=O)O

biological target: protein-protein interaction between Kras and SOS1 (biotin-tagged human Kras loaded with GDP, His-tagged human SOS1) (Homo sapiens (Human), UniProt P01116, G12D); experiment: Protein-protein interaction inhibition between Kras and SOS1 (KrasG12D-SOS PPI) using AlphaScreen; assay type: biochemical; settings: AlphaScreen; biotin-tagged human Kras loaded with GDP, His-tagged human SOS1; read-out: KRAS G12D-SOS PPI IC50;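 also: kras produced in E. coli, Ni-coupled donor beads and streptavidin acceptor beads, excitation 680 nm with emission detected at 520–620 nm via singlet oxygen transfer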

Row | Structure (SMILES) | IC50 [nM]
1 | CC[C@H](C)[C@@H]1NC(=O)[C@H](CC(C)C)N(C)C(=O)C[C@@H](C(=O)N2CCOCC2)N(C)C(=O)[C@H](C2CCCC2)N(C)C(=O)C2(CCCC2)NC(=O)[C@@H]2CCCN2C(=O)[C@H](CCc2ccc(C(F)(F)F)c(Cl)c2)NC(=O)CN(C)C(=O)[C@H](C2CCCC2)N(C)C(=O)[C@@H]2CCN2C(=O)[C@H](C)NC1=O [Compound 1309] ([NMeL]IA[Aze][NMeGly(cPent)][Sar][hPhe(3-Cl-4-CF3)]P[Ac5c][NMeGly(cPent)][NMeD]-Morpholide; lactam N-11) | 0.85
2 | CC[C@H](C)[C@@H]1NC(=O)[C@H](C)N(C)C(=O)C[C@@H](C(=O)N2CCCCC2)N(C)C(=O)[C@H](C2CCCCC2)N(C)C(=O)C2(CCCC2)NC(=O)[C@H](Cc2cccnc2)N(C)C(=O)[C@H](CCc2ccc(C(F)(F)F)c(Cl)c2)NC(=O)CN(C)C(=O)[C@H](CC2CCCCC2)N(C)C(=O)CN(C)C(=O)CN(C)C1=O [Compound 1012] ([NMeA]I[Sar][Sar][NMeCha][Sar][hPhe(3-Cl-4-CF3)][NMe3Pal][Ac5c][NMeChg][NMeD]-Piperidide; lactam N-11) | 1.2
3 | CC[C@H](C)[C@@H]1NC(=O)[C@H](C)N(C)C(=O)C[C@@H](C)N(C)C(=O)[C@H](C2CCC2)N(C)C(=O)C(C)(C)N(C)C(=O)[C@@H]2CCCN2C(=O)[C@H](CCc2ccc(C(F)(F)F)c(Cl)c2)NC(=O)CN(C)C(=O)[C@H](CC2CCCCC2)N(C)C(=O)[C@@H]2CCN2C(=O)[C@H](C)N(C)C1=O [Compound 2157] (cyclo([Aze][NMeCha][Sar][hPhe(3-Cl-4-CF3)]P[NMeAib][NMeGly(cBu)][NMedβ3hAla][NMeA]I[NMeA])) | 6.9
4 | CCCC[C@@H]1NC(=O)[C@H](Cc2cccc(I)c2)NC(=O)CN(C)C(=O)[C@H](Cc2ccc(OC)cc2)N(C)C(=O)[C@@H]2CCN2C(=O)[C@H](C)N(C)C(=O)[C@H]([C@@H](C)CC)NC(=O)[C@H](CC(C)C)N(C)C(=O)C[C@@H](C(=O)N2CCCCC2)N(C)C(=O)[C@H](CC(C)C)NC(=O)[C@H](CCC(=O)N(C)C)N(C)C1=O [Compound 2110, 3-[(3S,6S,9S,13S,16S,19S,22S,25S,31S,34S)-22-butyl-25-[(3-iodophenyl)methyl]-9,16-diisobutyl-31-[(4-methoxyphenyl)methyl]-3,4,10,14,20,29,32-heptamethyl-6-[(1S)-1-methylpropyl]-2,5,8,11,15,18,21,24,27,30,33-undecaoxo-13-(piperidine-1-carbonyl)-1,4,7,10,14,17,20,23,26,29,32-undecazabicyclo[32.2.0]hexatriacontan-19-yl]-N,N-dimethyl-propanamide] ([NMeL]I[NMeA][Aze][NMeY](Me)[Sar][Phe(3-I)][Nle][NMeE](NMe2)L[NMeD]-Piperidide; lactam N-11) | 9.8
5 | CC[C@H](C)[C@@H]1NC(=O)[C@H](C)N(C)C(=O)C[C@@H](C)NC(=O)[C@H](C2CCCC2)N(C)C(=O)C2(CCCC2)NC(=O)[C@@H]2CCCN2C(=O)[C@H](CCc2ccc(C(F)(F)F)c(Cl)c2)NC(=O)[C@@H](C)N(C)C(=O)[C@H](Cc2cccc(F)c2)N(C)C(=O)[C@@H]2CCN2C(=O)[C@H](C)N(C)C1=O [Compound 795] (cyclo([Ac5c][NMeGly(cPent)][d(β3hA)][NMeA]I[NMeA][Aze][NMePhe(3-F)][dNMeA][hPhe(3-Cl-4-CF3)]P)) | 72
6 | CCCC[C@H]1C(=O)N(C)[C@H](C(=O)N2CCCCC2)CC(=O)N(C)[C@@H](CC(C)C)C(=O)N[C@@H]([C@@H](C)CC)C(=O)N(C)[C@@H](C)C(=O)N2CC[C@H]2C(=O)N(C)[C@@H](CC2CCCCC2)C(=O)N(C)CC(=O)N[C@@H](CCc2ccc(C(F)(F)F)c(Cl)c2)C(=O)N2CCC[C@H]2C(=O)NC2(CCCC2)C(=O)N1C [Compound 1859] ([NMeL]I[NMeA][Aze][NMeCha][Sar][hPhe(3-Cl-4-CF3)]P[Ac5c][NMeNle][NMeD]-Piperidide; lactam N-11) | 15
7 | CC[C@H](C)[C@@H]1NC(=O)[C@H](C)N(C)C(=O)C[C@@H](C(=O)N2CCCCC2)N(C)C(=O)[C@H](C2CCCCC2)N(C)C(=O)C2(CCCC2)NC(=O)[C@@H]2CCCN2C(=O)[C@H](CCc2cc(Cl)c(Cl)c(OC(C)C)c2)NC(=O)CN(C)C(=O)[C@H](CC2CCCCC2)N(C)C(=O)CN(C)C(=O)CN(C)C1=O [Compound 2062] ([NMeA]I[Sar][Sar][NMeCha][Sar][X8]P[Ac5c][NMeChg][NMeD]-Piperidide; lactam N-11) | 6.9
8 | CC[C@H](C)[C@@H]1NC(=O)[C@@H]2CCCCN2C(=O)C[C@@H](C)NC(=O)[C@H](CC(C)C)N(C)C(=O)C2(CCCC2)NC(=O)[C@@H]2CCCN2C(=O)[C@H](CCc2ccc(C(F)(F)F)cc2)NC(=O)CN(C)C(=O)[C@H](Cc2ccc(Cl)cc2)N(C)C(=O)CN(C)C(=O)CN(C)C1=O [Compound 227] (cyclo([Ac5c][NMeL][d(β3hA)][Pip]I[Sar][Sar][NMePhe(4-Cl)][Sar][hPhe(4-CF3)]P)) | 82
9 | CCC[C@H]1C(=O)N[C@@H]([C@@H](C)CC)C(=O)N(C)[C@@H](C)C(=O)N2CC[C@H]2C(=O)N(C)[C@@H](CC2CCCCC2)C(=O)N(C)CC(=O)N[C@@H](CCc2ccc(C(F)(F)F)c(Cl)c2)C(=O)N2CCC[C@H]2C(=O)NC2(CCCC2)C(=O)N(C)[C@@H](C(C)C)C(=O)N(C)[C@H](C(=O)N2CCCCC2)CC(=O)N1C [Compound 1639] ([NMeNva]I[NMeA][Aze][NMeCha][Sar][hPhe(3-Cl-4-CF3)]P[Ac5c][NMeV][NMeD]-Piperidide; lactam N-11) | 5.8
